Reference: patent publication US8093265B2, “Bicycloheteroaryl compounds as P2X7 modulators and uses thereof” (Renovis, Inc., priority 2007, dated 2012)

target: T1, P2X7 receptor (Homo sapiens, UniProt Q99572); assay: IL-1β release assay in differentiated THP-1 cells (Example 9); type: cell-based; details: THP-1 cells differentiated with LPS and IFN-γ; 30 min pretreatment; BzATP 250 uM; IL-1β by ELISA
T1 construct: host or cells: THP-1 cells differentiated with LPS and IFN-γ
T1 sequence (Q99572 1-595): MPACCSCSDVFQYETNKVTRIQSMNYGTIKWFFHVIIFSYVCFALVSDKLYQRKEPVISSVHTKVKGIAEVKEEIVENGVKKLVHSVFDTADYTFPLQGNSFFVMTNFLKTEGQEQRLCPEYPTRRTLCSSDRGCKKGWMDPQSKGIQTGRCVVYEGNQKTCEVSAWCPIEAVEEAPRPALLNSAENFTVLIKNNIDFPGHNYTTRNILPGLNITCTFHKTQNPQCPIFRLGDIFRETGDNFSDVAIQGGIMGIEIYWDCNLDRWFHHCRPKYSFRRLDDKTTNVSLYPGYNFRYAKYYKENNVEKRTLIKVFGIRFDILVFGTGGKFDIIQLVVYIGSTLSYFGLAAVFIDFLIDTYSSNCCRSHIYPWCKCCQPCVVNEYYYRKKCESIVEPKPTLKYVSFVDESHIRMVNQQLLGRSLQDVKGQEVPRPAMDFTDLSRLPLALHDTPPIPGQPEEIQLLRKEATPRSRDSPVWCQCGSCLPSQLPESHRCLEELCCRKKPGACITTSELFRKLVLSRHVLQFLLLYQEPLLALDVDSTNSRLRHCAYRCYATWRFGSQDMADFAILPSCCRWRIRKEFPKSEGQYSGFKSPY
Experimental: THP-1 cells (ATCC Cat #285-IF-100) are plated in 96 well plates at a concentration of 200,000 cells per well and allowed to differentiate in RPMI-1640 media (ATCC Cat #30-2001) containing 10% FBS, 100 IU/mL penicillin, 100 ug/mL streptomycin, 100 ng/mL LPS and 100 ng/mL IFN-γ for 16 hours. Following differentiation, the cells are treated for an additional 2 hours in RPMI-1640 media containing 100 IU/mL penicillin, 100 ug/mL streptomycin and fresh LPS at 100 ng/mL. The cells are then pretreated for 30 minutes with the compound of interest at the appropriate concentration in RPMI media containing 100 IU/mL penicillin, 100 ug/mL streptomycin. Following the pretreatment 2′,3′-O-(4-benzoylbenzoyl)-adenosine 5′-triphosphate (Sigma Aldrich Cat # B6396) is added to a final concentration of 250 uM, and the cells are incubated for an additional 45 minutes. 30 uL of cell supernatant is then collected and IL-1β levels are determined via ELISA (R&D systems Cat. # HSLB50) according to manufacturer's recommendations using a Tecan Safire plate reader. Background adjusted IL-1β levels of drug treated and non-treated cells are used to calculate the percent inhibition.
The following compounds have been or can be prepared according to the synthetic methods described herein for example, methods A-AA1. The compounds set forth in Table 1 were tested for activity in a cellular model as described herein. Specifically, cells were pretreated with differing amounts of the compound under test and released IL-1β determined as in Example 9, above. Measurements were made and IC50 values, presented in Table 1, below, were determined by fitting the data to a four parameter logistic equation using GraphPad Prism software (GraphPad Software, Inc). The equation may be expressed by the following formula: Y=Bottom+(Top−Bottom)/(1+10^((Log EC50−X)*HillSlope)) where X is the logarithm of concentration, Y is the response and Y starts at Bottom and goes to Top with a sigmoid shape.

Compound	IC50 [nM]
C[C@H](C(=O)Nc1c(Cl)ccc2c(=O)n([C@H](C)C(N)=O)ccc12)c1ccc(Cl)cc1 [Compound 4, (R)-2-{6-Chloro-5-[(S)-2-(4-chloro-phenyl)-propionylamino]-1-oxo-1H-isoquinolin-2-yl}-propionamide]	18
COc1ccc2c(=O)n([C@H](C)C(N)=O)ccc2c1NC(=O)Cc1ccc(C(F)(F)F)cc1 [Compound 7, (R)-2-{6-Methoxy-1-oxo-5-[2-(4-trifluoromethyl-phenyl)-acetylamino]-1H-isoquinolin-2-yl}-propionamide]	48
C[C@@H](C(N)=O)n1ccc2c(NC(=O)Cc3ccc(C(F)(F)F)cc3)c(Cl)ccc2c1=O [Compound 8, (S)-2-{6-Chloro-1-oxo-5-[2-(4-trifluoromethyl-phenyl)-acetylamino]-1H-isoquinolin-2-yl}-propionamide]	113
COc1ccc2c(=O)n([C@H](C)CO)ccc2c1NC(=O)Cc1ccc(C(F)(F)F)c(F)c1 [Compound 9, 2-(3-Fluoro-4-trifluoromethyl-phenyl)-N-[2-((R)-2-hydroxy-1-methyl-ethyl)-6-methoxy-1-oxo-1,2-dihydro-isoquinolin-5-yl]-acetamide]	439
C[C@H](CO)n1ccc2c(NC(=O)Cc3ccc(Cl)c(Cl)c3)c(Cl)ccc2c1=O [Compound 12, N-[6-Chloro-2-((R)-2-hydroxy-1-methyl-ethyl)-1-oxo-1,2-dihydro-isoquinolin-5-yl]-2-(3,4-dichloro-phenyl)-acetamide]	13
C[C@H](CO)n1ccc2c(NC(=O)Cc3ccc(C(F)(F)F)cc3F)c(Cl)ccc2c1=O [Compound 14, N-[6-Chloro-2-((R)-2-hydroxy-1-methyl-ethyl)-1-oxo-1,2-dihydro-isoquinolin-5-yl]-2-(2-fluoro-4-trifluoromethyl-phenyl)-acetamide]	31
C[C@H](CO)n1ccc2c(NC(=O)Cc3ccc(C(F)(F)F)c(F)c3)c(C3CC3)ccc2c1=O [Compound 17, N-[6-Cyclopropyl-2-((R)-2-hydroxy-1-methyl-ethyl)-1-oxo-1,2-dihydro-isoquinolin-5-yl]-2-(3-fluoro-4-trifluoromethyl-phenyl)-acetamide]	9
O=C(Cc1cccc(C(F)(F)F)c1F)Nc1c(NCCO)ccc2c(=O)n(CCO)ccc12 [Compound 18, 2-(2-Fluoro-3-trifluoromethyl-phenyl)-N-[2-(2-hydroxy-ethyl)-6-(2-hydroxy-ethylamino)-1-oxo-1,2-dihydro-isoquinolin-5-yl]-acetamide]	1670
O=C(Cc1cccc(C(F)(F)F)c1F)Nc1c(Cl)ccc2c(=O)n(CCO)ccc12 [Compound 20, N-[6-Chloro-2-(2-hydroxy-ethyl)-1-oxo-1,2-dihydro-isoquinolin-5-yl]-2-(2-fluoro-3-trifluoromethyl-phenyl)-acetamide]	63
Cc1ccc2c(=O)n(CCO)ccc2c1NC(=O)Cc1cccc(C(F)(F)F)c1F [Compound 24, 2-(2-Fluoro-3-trifluoromethyl-phenyl)-N-[2-(2-hydroxy-ethyl)-6-methyl-1-oxo-1,2-dihydro-isoquinolin-5-yl]-acetamide]	65
Cc1ccc2c(=O)n(CCO)ccc2c1NC(=O)Cc1ccc(F)c(C(F)(F)F)c1 [Compound 27, 2-(4-Fluoro-3-trifluoromethyl-phenyl)-N-[2-(2-hydroxy-ethyl)-6-methyl-1-oxo-1,2-dihydro-isoquinolin-5-yl]-acetamide]	7

Further lines, results first:

IC50 [nM]	Compound
5	Cc1ccc2c(=O)n([C@H](C)CO)ccc2c1NC(=O)CC12CC3CC(CC(C3)C1)C2 [Compound 31, 2-Adamantan-1-yl-N-[2-((R)-2-hydroxy-1-methyl-ethyl)-6-methyl-1-oxo-1,2-dihydro-isoquinolin-5-yl]-acetamide]
9	Cc1ccc2c(=O)n([C@H](C)CO)ccc2c1NC(=O)CC1CCCCCC1 [Compound 32, 2-Cycloheptyl-N-[2-((R)-2-hydroxy-1-methyl-ethyl)-6-methyl-1-oxo-1,2-dihydro-isoquinolin-5-yl]-acetamide]
53	Cc1ccc2c(=O)n([C@@H](C)CO)ccc2c1NC(=O)Cc1ccc(C(F)(F)F)c(F)c1 [Compound 33, (S)-2-(3-fluoro-4-(trifluoromethyl)phenyl)-N-(2-(1-hydroxypropan-2-yl)-6-methyl-1-oxo-1,2-dihydroisoquinolin-5-yl)acetamide]
23	C[C@@H](CO)n1ccc2c(NC(=O)Cc3ccc(C(F)(F)F)c(F)c3)c(Cl)ccc2c1=O [Compound 34, N-[6-Chloro-2-((S)-2-hydroxy-1-methyl-ethyl)-1-oxo-1,2-dihydro-isoquinolin-5-yl]-2-(3-fluoro-4-trifluoromethyl-phenyl)-acetamide]
2	Cc1ccc2c(=O)n([C@H](C)CO)ccc2c1NC(=O)Cc1cccc(C(F)(F)F)c1 [Compound 35, N-[2-((R)-2-Hydroxy-1-methyl-ethyl)-6-methyl-1-oxo-1,2-dihydro-isoquinolin-5-yl]-2-(3-trifluoromethyl-phenyl)-acetamide]
4	C[C@H](CO)n1ccc2c(NC(=O)CC3CCCCCC3)c(Cl)ccc2c1=O [Compound 36, N-[6-Chloro-2-((R)-2-hydroxy-1-methyl-ethyl)-1-oxo-1,2-dihydro-isoquinolin-5-yl]-2-cycloheptyl-acetamide]
42	Cc1ccc2c(=O)n([C@H](C)CO)ccc2c1NC(=O)CC1(O)CCCCCC1 [Compound 37, 2-(1-Hydroxy-cycloheptyl)-N-[2-((R)-2-hydroxy-1-methyl-ethyl)-6-methyl-1-oxo-1,2-dihydroisoquinolin-5-yl]-acetamide]
43	CNCCn1ccc2c(NC(=O)Cc3ccc(C(F)(F)F)c(F)c3)c(C)ccc2c1=O [Compound 38, 2-(3-Fluoro-4-trifluoromethyl-phenyl)-1-[6-methyl-2-(2-methylamino-ethyl)-1-oxo-1,2-dihydroisoquinolin-5-yl]-acetamide]
1	C[C@H](CO)n1ccc2c(NC(=O)Cc3cccc(C(F)(F)F)c3)c(Cl)ccc2c1=O [Compound 39, N-[6-Chloro-2-((R)-2-hydroxy-1-methyl-ethyl)-1-oxo-1,2-dihydro-isoquinolin-5-yl]-2-(3-trifluoromethyl-phenyl)-acetamide]
310	C[C@H](CO)n1ccc2c(C(=O)NCc3ccc(C(F)(F)F)nc3)c(Cl)ccc2c1=O [Compound 43, 6-Chloro-2-((R)-2-hydroxy-1-methyl-ethyl)-1-oxo-1,2-dihydro-isoquinoline-5-carboxylic acid (6-trifluoromethyl-pyridin-3-ylmethyl)-amide]
500	C[C@H](CO)n1ccc2c(C(=O)NCc3ccccc3C(F)(F)F)c(Cl)ccc2c1=O [Compound 46, 6-Chloro-2-((R)-2-hydroxy-1-methyl-ethyl)-1-oxo-1,2-dihydro-isoquinoline-5-carboxylic acid 2-trifluoromethyl-benzylamide]
0.2	C[C@H](CO)n1ccc2c(C(=O)NCC3CCCCCC3)c(Cl)ccc2c1=O [Compound 48, 6-Chloro-2-((R)-2-hydroxy-1-methyl-ethyl)-1-oxo-1,2-dihydro-isoquinoline-5-carboxylic acid cycloheptylmethyl-amide]
3	Cc1ccc2c(=O)n([C@H](C)CO)ccc2c1C(=O)NCc1ccc(Cl)c(F)c1 [Compound 50, 2-((R)-2-Hydroxy-1-methyl-ethyl)-6-methyl-1-oxo-1,2-dihydro-isoquinoline-5-carboxylic acid 4-chloro-3-fluoro-benzylamide]
4	Cc1ccc2c(=O)n([C@H](C)CO)ccc2c1C(=O)NCC1(O)CCCCCC1 [Compound 52, 2-((R)-2-Hydroxy-1-methyl-ethyl)-6-methyl-1-oxo-1,2-dihydro-isoquinoline-5-carboxylic acid (1-hydroxy-cycloheptylmethyl)-amide]
